System: Meloidogyne incognita
Assay: Test against Meloidogyne spp., soil pot test (tomato)
Format: in vivo
Settings: 10 ppm active ingredient in soil contaminated with Meloidogyne incognita; tomato (Kurihara) in pots, greenhouse, 4 weeks; from root knot index
Description: Test Against Meloidogyne spp. Soil pot Test
Preparation of Test Agent:
1 Part of the active compound is impregnated to 99 parts of pumice to obtain fine granules.
The test agent prepared as mentioned above was added to soil contaminated with Meloidogyne incognita to a chemical concentration of 10 ppm and homogeneously mixed by stirring. A pot (1/5000 are) was filled with the soil. About 20 seeds of tomato (variety: Kurihara) were sown per pot. After cultivation in a greenhouse for 4 weeks, they were carefully pulled out not to damage the roots and the root knot index and the controlling effect were determined as follows.
Degree of damage 0: No knots were formed (Complete control).
1: A few knots were formed.
2: Knots were formed to a medium extent.
3: Knots were formed to an intense extent.
4: Knots were formed to the most intense extent (which corresponds to non-treatment). [formula]
The controlling effect of the compounds tested can then be evaluated according to the following equation: [formula]
The evaluation of the controlling effects of the compounds according to the present invention was done on the basis of the values of the controlling effect which can be obtained in the above-mentioned way and were connected with the following standards:
a: Controlling effect 100-71%
b: Controlling effect 70-50%
c: Controlling effect less than 50%

SMILES	Evaluation of controlling effect
FC(F)=C(F)CCSc1ncc(Cl)s1 [Example 1, 5-chloro-2-(3,4,4-trifluoro-3-butenylthio)thiazole]	a (Controlling effect 100-71%)
[O-][S+](CCC(F)=C(F)F)c1ncc(Cl)s1 (stereo not drawn) [Example 2, 5-chloro-2-(3,4,4-trifluoro-3-butenylsulfinyl)thiazole]	a (Controlling effect 100-71%)
O=S(=O)(CCC(F)=C(F)F)c1ncc(Cl)s1 [Example 3, 5-chloro-2-(3,4,4-trifluoro-3-butenylsulfonyl)thiazole]	a (Controlling effect 100-71%)

Source: patent US6734198B1, “Nematicidal trifluorobutenes” (Nihon Bayer Agrochem K.K., priority 1999, dated 2004)
